Laboratory results: patent US11628181B2, “N4-hydroxycytidine and derivatives and anti-viral uses related thereto” (Emory University, priority 2014, dated 2023)
Converted amounts (≈) assume the structure as drawn. Where two headings read alike, the source gives them in different places.

Experiments:
[1] = tested on: SARS Coronavirus Urbani; assay: microbe, parasite or virus in culture; assay type: cell-based; details: Severe acute respiratory syndrome-related coronavirus, Vero 76
[2] = in vitro; details: African green monkey
[3] = tested on: Norovirus GT1; assay: Norovirus GT1 antiviral screening in HG23; assay type: cell-based
[4] = Cytotoxicity (CC50) in HG23, norovirus screening; assay type: cell-based; details: human, HG23 cells; HG23, norovirus screen
[5] = tested on: Chikungunya virus; assay: Chikungunya virus (MOI 0.5) viral inhibition in U2OS cell line; assay type: cell-based; details: for inhibition at 10 µM: read-out: Viral Inh. 10 uM; for inhibition at 50 µM: read-out: Viral Inh. 50 uM
[6] = tested on: U2OS cell line; assay: Cell viability, U2OS cell line (Chikungunya screen)
[7] = tested on: VEEV; assay: microbe, parasite or virus in culture; assay type: cell-based; details: Venezuelan equine encephalitis virus, HeLa; for inhibition at 10 µM: read-out: Viral Inh. 10 uM; for inhibition at 50 µM: read-out: Viral Inh. 50 uM
[8] = tested on: HeLa; details: human
[9] = tested on: VEEV; assay: microbe, parasite or virus in culture; assay type: cell-based; details: Venezuelan equine encephalitis virus, Astrocyte; for inhibition at 10 µM: read-out: Viral Inh. 10 uM; for inhibition at 50 µM: read-out: Viral Inh. 50 uM
[10] = tested on: Astrocytes
[11] = tested on: MERV; assay: MERV (MOI 0.4) viral inhibition in Vero; assay type: cell-based; details: MERV MOI 0.4, Vero; for inhibition at 10 µM: read-out: Viral Inh. 10 uM; for inhibition at 50 µM: read-out: Viral Inh. 50 uM
[12] = tested on: Vero; assay: Cell viability, Vero (MERV screen); assay type: cell-based

**Q.** Which EC50 [1] does the source give for `CCCCCCCCC(=O)ONc1ccn([C@@H]2O[C@H](CO)C(O)C2O)c(=O)n1` (stereo partly drawn) here?
**A.** The EC50 was 0.19 µg/mL (≈ 0.476 µM).

**Q.** What about the CC50 [2] of the same compound?
**A.** Its CC50 is 36 µg/mL (≈ 90.1 µM).

**Q.** Which EC50 [1] does the source give for `CONc1ccn([C@@H]2O[C@H](CO)C(O)C2O)c(=O)n1` (stereo partly drawn) here?
**A.** Its EC50 is greater than 100 µg/mL.

**Q.** What about the CC50 [2] of the same compound?
**A.** The CC50 was greater than 100 µg/mL.

**Q.** For `CC1(O)C(O)[C@@H](CO)O[C@H]1n1ccc(NO)nc1=O` (stereo partly drawn), which EC50 [3] is on record?
**A.** The EC50 was greater than 100 µg/mL.

**Q.** What about the CC50 [4] of the same compound?
**A.** Its CC50 is greater than 100 µg/mL.

**Q.** And the EC50 [1]?
**A.** The EC50 was greater than 100 µg/mL.

**Q.** What about the CC50 [2] of the same compound?
**A.** Its CC50 is greater than 100 µg/mL.

**Q.** Which results are given for `O=c1nc(NO)ccn1[C@@H]1O[C@H](CO)C(O)C1O` (stereo partly drawn) [drawing 68]?
**A.** EC50 [3]: > 100 µg/mL; CC50 [4]: > 100 µg/mL; EC50 [1]: < 0.1 µg/mL; CC50 [2]: 36 µg/mL (≈ 139 µM)

**Q.** With `CCCCCCCOC(=O)ONc1ccn([C@@H]2O[C@H](CO)C(O)C2O)c(=O)n1` (stereo partly drawn) [drawing 70] as the compound, how does the EC50 [1] read?
**A.** Its EC50 is 0.28 µg/mL (≈ 0.698 µM).

**Q.** And the CC50 [2]?
**A.** The CC50 was greater than 100 µg/mL.

**Q.** Which results are given for `O=c1nc(NO)ccn1[C@@H]1O[C@H](CO)C(O)C1O` (stereo partly drawn) [drawing 73]?
**A.** inhibition at 10 µM [5]: 80%; inhibition at 50 µM [5]: 100%; Cell Viability 10 uM [6]: 97% ± 5% (n = 4); Cell Viability 50 uM [6]: 79% ± 10% (n = 4)

**Q.** Which inhibition at 10 µM [5] does the source give for `CCCCCCCOC(=O)ONc1ccn([C@@H]2O[C@H](CO)C(O)C2O)c(=O)n1` (stereo partly drawn) [drawing 74] here?
**A.** The inhibition at 10 µM was 72%.

**Q.** What about the inhibition at 50 µM [5] of the same compound?
**A.** Its inhibition at 50 µM is 98%.

**Q.** And the “Cell Viability 10 uM” value [6]?
**A.** The value was 93% ± 4% (n = 4).

**Q.** And the “Cell Viability 50 uM” value [6]?
**A.** The value was 79% ± 8% (n = 4).

**Q.** Which inhibition at 10 µM [5] does the source give for `CC(C)OC(=O)[C@H](C)NP(=O)(OC[C@H]1O[C@@H](n2ccc(NO)nc2=O)C(O)C1O)Oc1ccccc1` (stereo partly drawn) [drawing 75] here?
**A.** The inhibition at 10 µM was 3%.

**Q.** And the inhibition at 50 µM [5]?
**A.** The inhibition at 50 µM was 36%.

**Q.** What about the “Cell Viability 10 uM” value [6] of the same compound?
**A.** Its value is 99% ± 6% (n = 4).

**Q.** And the “Cell Viability 50 uM” value [6]?
**A.** Its value is 99% ± 8% (n = 4).

**Q.** Which results are given for `O=c1nc(NO)c(F)cn1[C@@H]1O[C@H](CO)C(O)C1O` (stereo partly drawn) [drawing 76]?
**A.** inhibition at 10 µM [5]: 8%; inhibition at 50 µM [5]: 51%; Cell Viability 10 uM [6]: 81% ± 4% (n = 4); Cell Viability 50 uM [6]: 53% ± 2% (n = 4)

**Q.** For `CCCCCCCNC(=O)ONc1ccn([C@@H]2O[C@H](CO)C(O)C2O)c(=O)n1` (stereo partly drawn) [drawing 77], which inhibition at 10 µM [5] is on record?
**A.** Its inhibition at 10 µM is 14%.

**Q.** What about the inhibition at 50 µM [5] of the same compound?
**A.** Its inhibition at 50 µM is 70%.

**Q.** And the “Cell Viability 10 uM” value [6]?
**A.** Its value is 105% ± 2% (n = 4).

**Q.** What about the “Cell Viability 50 uM” value [6] of the same compound?
**A.** The value was 96% ± 11% (n = 4).

**Q.** What does the source list for `O=c1nc(NO)ccn1[C@@H]1O[C@H](CO)C(O)C1O` (stereo partly drawn) [drawing 78]?
**A.** EC50 [7]: 1.24 µM; inhibition at 10 µM [7]: 100%; inhibition at 50 µM [7]: 100%; Cell Viability 10 uM [8]: 116% ± 24% (n = 4); Cell Viability 50 uM [8]: 61% ± 8% (n = 4)

**Q.** What does the source list for `CCCCCCCOC(=O)ONc1ccn([C@@H]2O[C@H](CO)C(O)C2O)c(=O)n1` (stereo partly drawn) [drawing 79]?
**A.** EC50 [7]: 0.57 µM; inhibition at 10 µM [7]: 100%; inhibition at 50 µM [7]: 100%; Cell Viability 10 uM [8]: 116% ± 20% (n = 4); Cell Viability 50 uM [8]: 85% ± 8% (n = 4)

**Q.** For `CC(C)OC(=O)[C@H](C)NP(=O)(OC[C@H]1O[C@@H](n2ccc(NO)nc2=O)C(O)C1O)Oc1ccccc1` (stereo partly drawn) [drawing 80], which EC50 [7] is on record?
**A.** The EC50 was 16.2 µM.

**Q.** And the inhibition at 10 µM [7]?
**A.** The inhibition at 10 µM was 73%.

**Q.** And the inhibition at 50 µM [7]?
**A.** Its inhibition at 50 µM is 100%.

**Q.** And the “Cell Viability 10 uM” value [8]?
**A.** The value was 137% ± 16% (n = 4).

**Q.** And the “Cell Viability 50 uM” value [8]?
**A.** Its value is 134% ± 16% (n = 4).

**Q.** What does the source list for `O=c1nc(NO)c(F)cn1[C@@H]1O[C@H](CO)C(O)C1O` (stereo partly drawn) [drawing 81]?
**A.** inhibition at 10 µM [7]: 61%; inhibition at 50 µM [7]: 98%; Cell Viability 10 uM [8]: 55% ± 4% (n = 4); Cell Viability 50 uM [8]: 36% ± 2% (n = 4)

**Q.** Which results are given for `CCCCCCCNC(=O)ONc1ccn([C@@H]2O[C@H](CO)C(O)C2O)c(=O)n1` (stereo partly drawn) [drawing 82]?
**A.** EC50 [7]: 6 µM; inhibition at 10 µM [7]: 93%; inhibition at 50 µM [7]: 100%; Cell Viability 10 uM [8]: 151% ± 16% (n = 4); Cell Viability 50 uM [8]: 126% ± 7% (n = 4)

**Q.** Which inhibition at 10 µM [9] does the source give for `O=c1nc(NO)ccn1[C@@H]1O[C@H](CO)C(O)C1O` (stereo partly drawn) [drawing 83] here?
**A.** Its inhibition at 10 µM is 99%.

**Q.** And the inhibition at 50 µM [9]?
**A.** The inhibition at 50 µM was 100%.

**Q.** And the “Cell Viability 10 uM” value [10]?
**A.** Its value is 98% ± 12% (n = 3).

**Q.** And the “Cell Viability 50 uM” value [10]?
**A.** Its value is 86% ± 5% (n = 3).

**Q.** What does the source list for `CCCCCCCOC(=O)ONc1ccn([C@@H]2O[C@H](CO)C(O)C2O)c(=O)n1` (stereo partly drawn) [drawing 84]?
**A.** inhibition at 10 µM [9]: 94%; inhibition at 50 µM [9]: 100%; Cell Viability 10 uM [10]: 99% ± 9% (n = 3); Cell Viability 50 uM [10]: 94% ± 10% (n = 3)

**Q.** With `CC(C)OC(=O)[C@H](C)NP(=O)(OC[C@H]1O[C@@H](n2ccc(NO)nc2=O)C(O)C1O)Oc1ccccc1` (stereo partly drawn) [drawing 85] as the compound, how does the inhibition at 10 µM [9] read?
**A.** The inhibition at 10 µM was 49%.

**Q.** And the inhibition at 50 µM [9]?
**A.** Its inhibition at 50 µM is 96%.

**Q.** And the “Cell Viability 10 uM” value [10]?
**A.** The value was 102% ± 16% (n = 3).

**Q.** And the “Cell Viability 50 uM” value [10]?
**A.** The value was 100% ± 17% (n = 3).

**Q.** For `CCCCCCCNC(=O)ONc1ccn([C@@H]2O[C@H](CO)C(O)C2O)c(=O)n1` (stereo partly drawn) [drawing 87], which inhibition at 10 µM [9] is on record?
**A.** Its inhibition at 10 µM is 51%.

**Q.** And the inhibition at 50 µM [9]?
**A.** Its inhibition at 50 µM is 37%.

**Q.** And the “Cell Viability 10 uM” value [10]?
**A.** Its value is 98% ± 12% (n = 3).

**Q.** And the “Cell Viability 50 uM” value [10]?
**A.** The value was 85% ± 19% (n = 3).

**Q.** Which inhibition at 10 µM [11] does the source give for `O=c1nc(NO)ccn1[C@@H]1O[C@H](CO)C(O)C1O` (stereo partly drawn) [drawing 88] here?
**A.** The inhibition at 10 µM was 99%.

**Q.** What about the inhibition at 50 µM [11] of the same compound?
**A.** Its inhibition at 50 µM is 100%.

**Q.** What about the “Cell Viability 10 uM” value [12] of the same compound?
**A.** The value was 75% ± 6% (n = 4).

**Q.** What about the “Cell Viability 50 uM” value [12] of the same compound?
**A.** Its value is 47% ± 3% (n = 4).

**Q.** With `CCCCCCCOC(=O)ONc1ccn([C@@H]2O[C@H](CO)C(O)C2O)c(=O)n1` (stereo partly drawn) [drawing 89] as the compound, how does the inhibition at 10 µM [11] read?
**A.** The inhibition at 10 µM was 99%.

**Q.** What about the inhibition at 50 µM [11] of the same compound?
**A.** The inhibition at 50 µM was 99%.

**Q.** What about the “Cell Viability 10 uM” value [12] of the same compound?
**A.** Its value is 84% ± 8% (n = 4).

**Q.** And the “Cell Viability 50 uM” value [12]?
**A.** The value was 58% ± 2% (n = 4).

**Q.** For `CC(C)OC(=O)[C@H](C)NP(=O)(OC[C@H]1O[C@@H](n2ccc(NO)nc2=O)C(O)C1O)Oc1ccccc1` (stereo partly drawn) [drawing 90], which inhibition at 10 µM [11] is on record?
**A.** Its inhibition at 10 µM is 29%.

**Q.** And the inhibition at 50 µM [11]?
**A.** The inhibition at 50 µM was 85%.

**Q.** What about the “Cell Viability 10 uM” value [12] of the same compound?
**A.** Its value is 103% ± 14% (n = 4).

**Q.** And the “Cell Viability 50 uM” value [12]?
**A.** The value was 102% ± 36% (n = 4).

**Q.** For `CCCCCCCNC(=O)ONc1ccn([C@@H]2O[C@H](CO)C(O)C2O)c(=O)n1` (stereo partly drawn) [drawing 92], which inhibition at 10 µM [11] is on record?
**A.** The inhibition at 10 µM was 86%.

**Q.** What about the inhibition at 50 µM [11] of the same compound?
**A.** The inhibition at 50 µM was 98%.

**Q.** And the “Cell Viability 10 uM” value [12]?
**A.** Its value is 118% ± 15% (n = 4).

**Q.** What about the “Cell Viability 50 uM” value [12] of the same compound?
**A.** The value was 91% ± 39% (n = 4).
